{
  "source": "BindingDB's records for doi:10.1021/acs.jnatprod.9b00140",
  "about": "(University of Illinois At Chicago, 2019)",
  "molecular_target": "Transcription factor p65 (Human, UniProt Q04206)",
  "sequence (Q04206 whole entry)": "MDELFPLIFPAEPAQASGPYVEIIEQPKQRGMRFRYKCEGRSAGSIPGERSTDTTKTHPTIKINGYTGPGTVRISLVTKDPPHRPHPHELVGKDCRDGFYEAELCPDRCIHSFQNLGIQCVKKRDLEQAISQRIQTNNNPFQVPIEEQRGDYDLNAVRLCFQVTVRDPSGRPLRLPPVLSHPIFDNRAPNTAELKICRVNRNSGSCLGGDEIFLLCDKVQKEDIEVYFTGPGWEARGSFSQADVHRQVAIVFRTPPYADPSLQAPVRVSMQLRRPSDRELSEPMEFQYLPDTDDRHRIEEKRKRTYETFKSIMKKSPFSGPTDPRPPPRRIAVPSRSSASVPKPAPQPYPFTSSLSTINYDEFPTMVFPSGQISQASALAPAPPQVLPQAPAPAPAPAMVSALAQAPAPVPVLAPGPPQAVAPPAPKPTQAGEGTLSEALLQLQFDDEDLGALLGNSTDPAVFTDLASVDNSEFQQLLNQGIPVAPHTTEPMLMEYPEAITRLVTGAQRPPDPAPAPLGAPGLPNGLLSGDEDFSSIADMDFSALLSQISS",
  "assay": "Inhibition of TNF alpha stimulated NF-KappaB p65 in human HeLa nuclear extract assessed as decrease in NF-KappaB translocation to nucleus measured after 5 hrs by ELISA",
  "data": [
    {"smiles": "C[C@H]1O[C@@H](O[C@H]2CC[C@]3(C)[C@H]4CC[C@]5(C)[C@@H](C6=CC(=O)OC6)CC[C@]5(O)[C@@H]4CC[C@]3(O)C2)C[C@H](O)[C@@H]1O[C@@H]1O[C@H](CO)[C@@H](O)[C@H](O)[C@H]1O", "values": [
      {"measurement": "IC50", "result": 4.3, "unit": "µM"}
    ]}
  ]
}
